One assay concerns IL-13 gene. Nature of the assay: RT-PCR analysis of IL-13 mRNA. It is filed as cell-based, human. As to conditions: HUVEC, 10 μM cPGI, 12 h, FIG. 1A. As to the method:
(§1) For analysis of IL-13, human vascular endothelial cells (1.2×10^4 cells/cm^2) were stimulated with cPGI (10 μM) for 12 h, and total RNA was prepared from stimulated cells with Isogen (Nippon Gene). For analysis of COX-2, human vascular endothelial cells (1.2×10^4 cells/cm^2) were pretreated with TNF-α (1 ng/ml) and IL-1b (20 ng/ml) for 1 h, and then treated with cPGI (0, 10 μM), anti-human IL-13 monoclonal antibody (0, 0.5 μg/ml) and control IgG (0, 0.5 μg/ml) for 12 h to prepare total RNA. The total RNA (0.5 μg) was used for analysis by SuperScript RT-PCR system (Invitrogen) according to the manufacturer's instructions. The oligonucleotide primers used were IL-13-s (5′-[…]-3′ (SEQ ID NO: 6); sense) and IL-13-as (5′-[…]-3′ (SEQ ID NO: 7); antisense) for human IL-13, β-actin-s (5′-[…]-3′ (SEQ ID NO: 8); sense) and β-actin-as (5′-[…]-3′ (SEQ ID NO: 9); antisense) for human β-actin, and COX-2-s (5′-[…]-3′ (SEQ ID NO: 10); sense) and COX-2-as (5′-[…]-3′ (SEQ ID NO: 11); antisense) for human COX-2. For each PCR amplification, 1 μl of cDNA was used in a 50 μl reaction. Reverse transcription-PCR (RT-PCR) for β-actin (25 cycles) was used as an internal control for mRNA abundance. For IL-13 and COX-2 genes, the number of cycles ranged from 25 to 45. […] Samples were normalized based on equivalent expression of β-actin.

For another assay, the system named is IL-13. Nature of the assay: IL-13 ELISA of culture medium of human vascular endothelial cells. As to conditions: 24 h; for endogenous IL-13 expression in PGI2-deprived cells: HUVEC treated with PGIS siRNA, cPGI 10 μM, FIG. 6C. It is filed as cell-based. Here is the method:
Human vascular endothelial cells (1.2×10^4 cells/cm^2) were cultured in EGM-2 containing 2% FBS and several concentrations of cPGI with or without TNF-α for 24 h. Incubation media were collected and stored at −80° C. before assay. Amounts of IL-13 were measured with human IL-13 ELISA system (Amersham Pharmacia Biotech, Buckinghamshire, UK) and amounts of PGI2 were measured as the amounts of 6-keto-PGI1α, a stable metabolite of PGI2, with 6-keto-PGI1α ELISA kit (Cayman Chemical Co., Ann Arbor, Mich.) according to the manufacturers' instructions.
siRNA duplexes with the following sense and antisense sequences were made: PGIS1, 5′-[…]-3′ (SEQ ID NO: 12; sense) and 5′-[…]-3′ (SEQ ID NO: 13; antisense); PGIS2, 5′-[…]-3′ (SEQ ID NO: 14; sense) and 5′-[…]-3′ (SEQ ID NO: 15; antisense); PGIS3, 5′-[…]-3′ (SEQ ID NO: 16; sense) and 5′-[…] (SEQ ID NO: 17; antisense); and PGIS4, 5′-[…]-3′ (SEQ ID NO:, 18; sense) and 5′-[…]-3′ (SEQ ID NO: 19; antisense). siRNAs were synthesized and annealed by Dharmacon Research Inc. (Lafayette, CO). Control non-silencing siRNA, a duplex of sense (5′-UUCUCCGAACGUGUCACGUdTdT-3′; SEQ ID NO: 20) and antisense (5′-ACGUGACACGUUCGGAGAAdTdT-3′; SEQ ID NO: 21) sequences, was purchase from Qiagen (Valencia, Calif.). The cells were initially transfected with 200 pmol per well of the annealed RNA mixture or the same amount of control siRNA using LipofectAMINE2000 (Invitrogen), and 12 h later secondly transfected with the same amount of siRNAs using HVJ-liposome transfection kit (GenomeONE; Ishihara Sangyo, Osaka, Japan) according to the manufacturers' instructions. The cells were retransfected with the siRNAs every 3 days using LipofectAMINE2000 and HVJ-liposome, and used for analyses 10 days after transfection. Microsomal fractions of the cells were prepared and analyzed by immunoblotting with anti-PGIS P4 polyclonal antibody as described previously (Hatae et al., J. Biol. Chem. (2001) 276: 46260-7). The cells treated with siRNAs for 10 days were cultured in fresh EGM-2 containing 2% FBS and TNF-α (0, 10 ng/ml). with or without cPGI (10 μM) for 24 h. The incubation media were collected, and amounts of 6-keto-PGI1α or IL-13 were measured with ELISA kit.
On the technique in general: ELISA stands for enzyme-linked immunosorbent assay.

The subject of assay [1] is promoter region of the human IL-13 gene. The experiment in a line: IL-13 promoter-luciferase reporter assay. In kind it is cell-based. As to conditions: 10 μM cPGI, 24 h. The text has this:
Promoter sequences of human IL-13 gene containing PPRE and GATA elements were isolated from human leukocyte genomic DNA by polymerase chain reaction (PCR) with primers A (5′-[…]-3′ (SEQ ID NO: 3); sense) and D (5′-[…]-3′ (SEQ ID No: 4); antisense) for the 1.3 kbp fragment, and B (5′-[…]-3′ (SEQ ID NO: 5); sense) and D for the 0.4 kbp fragment. Each fragment was inserted into the MluI-XbaI site of pGL3-promoter vector (Promega, Madison, Wis.). Human vascular endothelial cells (1.2×10^4 cells/cm^2) were cotransfected with 0.2 μg of IL-13-luciferase reporter vector, 0.1 μg of β-galactosidase expression vector and 0.7 μg of expression vector for PPARδwt, PPARδdn, CREBwt, CREBdn or mock vector by use of TransIT LT-1. After 17 h of transfection, cells were incubated in fresh EGM-2 containing 2% FBS. After another 24 h, the cells were washed with PBS, and cultured in EGF-2 containing 2% FBS with 10 μM cPGI for 24 h to quantify luciferase and β-galactosidase activities as described previously (Hatae et al., J. Biol. Chem. (2001) 276: 46260-7). The luciferase activity of the extract was normalized to β-galactosidase activity.

A further assay deals with COX-2 gene. Nature of the assay: RT-PCR analysis of COX-2 mRNA. As to conditions: HUVEC, cPGI 10 μM, 12 h, FIG. 5 lane 3. In kind it is cell-based, human. As to the method: as §1
Where [2] appears, read: 413 bp IL-13 promoter fragment, FIG. 3.

“Also recorded” adds a separate entry of the source.

Consider `CCCCC[C@H](O)/C=C/[C@@H]1[C@H]2C/C(=C/CCCC(=O)O)C[C@H]2C[C@H]1O` [cPGI, carbaprostacyclin], for which the “IL-13 mRNA expression (RT-PCR)” value in the assay on IL-13 gene is on record as “apparent induction”. Besides, the “endogenous IL-13 expression in PGI2-deprived cells” value in the assay with IL-13 is listed as “significantly increased”. In addition, the “endogenous IL-13 expression in PGI2-deprived cells” value in the assay on IL-13 (listed as carbaprostacyclin) is given as “significantly induced”. Moreover, the “production of IL-13, exogenous cPGI added to TNF-α” value with IL-13 (HUVEC, TNF-α 0-10 ng/ml with cPGI 0, 2 or 10 μM, dose-dependent, FIG. 4C) is listed as “enhanced”. In addition, the “IL-13 protein in the culture medium (ELISA)” value in the assay on IL-13 (HUVEC, cPGI 0, 1, 10 and 100 μM, FIG. 1B) is on record as “detectable; also recorded: dose-dependent”. In assay [1] (setting [2]), the “cPGI-dependent IL-13 promoter luciferase activity on coexpression of dominant negative CREB (CREBdn)” value is listed as “no effect” and the “cPGI-dependent increase of IL-13 promoter luciferase activity on cotransfection of dominant negative PPARδ (PPARδdn)” value is reported as “suppressed”. Moreover, in assay [1] (HUVEC, FIG. 2B), the “luciferase activity of reporter vector containing GATA sequences without PPREs” value is reported as “increased only weakly”, the “luciferase activity of reporter vectors containing the PPRE consensus region of the IL-13 promoter” value is “significantly increase” and the “luciferase activity of vectors from which the PPRE consensus sequence region had been deleted” value is recorded as “not increased”. Also, in the assay on COX-2 gene, the “inducible expression of COX-2 (TNF-α and IL-1 induced)” value is “significantly inhibited”.

These data come from patent publication US20050080140A1, “Method for treating or preventing inflammatory disorders” (AnGes MG, Inc., priority 2003, published 2005).
